{"source": "patent US20150165029A1", "about": "“THERAPEUTIC COMPOSITIONS” (CUBIST PHARMACEUTICALS, INC., priority 2005, published 2015)", "key": {"[1]": {"assay": "Rat intraduodenal capsule model, % bioavailability", "conditions": "for Drug plus enhancer % BA: 4:1 (enhancer:drug), ceftriaxone/carrageenan complex+Laureth-12, daptomycin carrageenan complex+Ceteth-15, CMPD 1+Ceteth-15, cidofovir, meropenem, caspofungin+Ceteth-12; for bioavailability: male, Sprague Dawley, rat, plasma", "procedure": "(§1) Male Sprague Dawley rats weighing approximately 250 g with free access to water were fasted overnight. These rats were anesthetized with 40 mg/kg pentobarbital via jugular vein catheter. The small intestine was exposed by a ventral midline incision. A small incision was made into the duodenum and a #9el capsule was inserted into the lumen of the small intestine. The duodenum and the midline incisions were sutured closed. The rats regained consciousness in 30-90 minutes. Blood samples were taken from the jugular vein catheter at 0, 15, 30 and 60 minutes and 2, 3, 4 and 6 hours. Food was returned at 1 hour post surgery. Blood samples were collected in heparinized tubes and subsequently centrifuged. The plasma was stored at −20 C in heparinized tubes. The rats regained consciousness in 30-90 minutes. After the 6 hr blood sample, the rat was euthanized and a necropsy was performed to determine accuracy and integrity of the surgery. The duodenum was examined for blockage, leakage and any evidence of inflammation or irritation at the site of the capsule implantation."}, "[2]": {"assay": "Rat intraduodenal capsule model, Cmax with different enhancers (Example 6)", "conditions": "ID in rats, Cmax normalized to 40 mg/Kg", "procedure": "Male Sprague Dawley rats weighing approximately 250 g with free access to water were fasted overnight. These rats were anesthetized with 40 mg/kg pentobarbital via jugular vein catheter. The small intestine was exposed by a ventral midline incision. A small incision was made into the duodenum and a #9el capsule was inserted into the lumen of the small intestine. The duodenum and the midline incisions were sutured closed. The rats regained consciousness in 30-90 minutes. Blood samples were taken from the jugular vein catheter at 0, 15, 30 and 60 minutes and 2, 3, 4 and 6 hours. Food was returned at 1 hour post surgery. Blood samples were collected in heparinized tubes and subsequently centrifuged. The plasma was stored at −20 C in heparinized tubes. […] After the 6 hr blood sample, the rat was euthanized and a necropsy was performed to determine accuracy and integrity of the surgery. The duodenum was examined for blockage, leakage and any evidence of inflammation or irritation at the site of the capsule implantation.\nIn each instance, the compositions were administered ID in 3 rats, unless otherwise indicated."}, "[3]": {"conditions": "without any absorption enhancer; cited from earlier work"}, "[4]": {"conditions": "rat, in vivo", "procedure": "as §1"}, "[5]": {"conditions": "rat, in vivo; cited from earlier work"}}, "note": "Read-outs that look alike come from different tables or passages of the source."}
{"compound": "CN(/N=C/C1=C(C(=O)O)N2C(=O)C(NC(=O)/C(=N\\OCF)c3nsc(N)n3)[C@H]2SC1)C(=N)N1CCNCC1", "note": "(stereo partly shown) [CMPD 1, 7-(((5-amino-1,2,4-thiadiazol-3-yl)-(Z)-(fluoromethoxyimino)acetyl)amino)-3(E)-((imino-1-piperazinylmethyl)-methylhydrazono)methyl-3-cephem-4-carboxylic acid]", "values": [{"measurement": "Drug plus enhancer % BA", "setting": "[1]; ID, rats", "result": 30, "unit": "%"}, {"measurement": "Cmax Mean (±SD)", "setting": "[2]; enhancer Capmul C10, enhancer:drug 4:1", "result": "7 (7) μg/mL"}, {"measurement": "Cmax Mean (±SD)", "setting": "[2]; enhancer Gelmul 90, enhancer:drug 4:1", "result": "13 (8) μg/mL"}, {"measurement": "Cmax Mean (±SD)", "setting": "[2]; enhancer Laureth-12, enhancer:drug 4:1", "result": "22 (4) μg/mL"}, {"measurement": "Cmax Mean (±SD)", "setting": "[2]; enhancer Sodium Laurate, enhancer:drug 4:1", "result": "7 (1) μg/mL"}]}
{"compound": "CC[C@H](C)C[C@H](C)CCCCCCCCC(=O)N[C@H]1C[C@@H](O)[C@@H](NCCN)NC(=O)[C@@H]2[C@@H](O)CCN2C(=O)[C@H]([C@H](O)CCN)NC(=O)[C@H]([C@H](O)[C@@H](O)c2ccc(O)cc2)NC(=O)[C@@H]2C[C@@H](O)CN2C(=O)[C@H]([C@@H](C)O)NC1=O", "note": "[Caspofungin, caspofungin]", "values": [{"measurement": "Drug plus enhancer % BA", "setting": "[1]; ID, rats", "result": "<5", "unit": "%"}, {"measurement": "bioavailability", "setting": "[1]", "result": "< 1", "unit": "%"}]}
{"compound": "CO/N=C(\\C(=O)N[C@@H]1C(=O)N2C(C(=O)O)=C(CSc3nc(=O)c(=O)[nH]n3C)CS[C@H]12)c1csc(N)n1", "note": "[Ceftriaxone, ceftriaxone]", "values": [{"measurement": "Drug plus enhancer % BA", "setting": "[1]; ID, rats", "result": "83^2%"}, {"measurement": "Drug only % BA", "setting": "[1]; without POE alkyl ether enhancer, ID, rats", "result": 2, "unit": "%"}, {"measurement": "oral bioavailability", "setting": "[3]", "result": "0-5%"}]}
{"compound": "Nc1ccn(C[C@@H](CO)OCP(=O)(O)O)c(=O)n1", "note": "[Cidofovir, cidofovir]", "values": [{"measurement": "Drug plus enhancer % BA", "setting": "[1]; ID, rats", "result": 44, "unit": "%"}, {"measurement": "bioavailability", "setting": "[1]", "result": 2, "unit": "%"}]}
{"compound": "CCCCCCCCCC(=O)N[C@@H](Cc1c[nH]c2ccccc12)C(=O)N[C@H](CC(N)=O)C(=O)N[C@@H](CC(=O)O)C(=O)N[C@@H]1C(=O)NCC(=O)N[C@@H](CCCN)C(=O)N[C@@H](CC(=O)O)C(=O)N[C@H](C)C(=O)N[C@@H](CC(=O)O)C(=O)NCC(=O)N[C@H](CO)C(=O)N[C@@H]([C@H](C)CC(=O)O)C(=O)N[C@@H](CC(=O)c2ccccc2N)C(=O)O[C@@H]1C", "note": "[Daptomycin, daptomycin, reference compound]", "values": [{"measurement": "Drug plus enhancer % BA", "setting": "[4]", "result": "44^2%"}, {"measurement": "oral bioavailability of drug only (footnote)", "setting": "[5]", "result": "poor oral bioavailability"}]}
{"compound": "C[C@@H](O)[C@H]1C(=O)N2C(C(=O)O)=C(S[C@@H]3CN[C@H](C(=O)N(C)C)C3)[C@H](C)[C@H]12", "note": "[Meropenem, meropenem]", "values": [{"measurement": "Drug plus enhancer % BA", "setting": "[1]; ID, rats", "result": 28, "unit": "%"}, {"measurement": "bioavailability", "setting": "[1]", "result": 1, "unit": "%"}]}
{"compound": "Beheneth-20", "values": [{"measurement": "% bioavailability", "setting": "[4]", "result": "7 (5) %"}]}
{"compound": "Laureth-9", "values": [{"measurement": "% bioavailability", "setting": "[4]", "result": "60 (19) %"}]}
{"compound": "Laureth-23", "values": [{"measurement": "% bioavailability", "setting": "[4]", "result": "10 (4) %"}]}
